# Values quoted from earlier work as cited in patent publication US10028918B2, “Nanoparticle delivery vehicle for S-nitroso-N-acetyl cysteine and uses thereof” (ALBERT EINSTEIN COLLEGE OF MEDICINE, INC., priority 2012, dated 2018).
# Test system: rats
# Details: normal and acute hypertension induced rats
smiles,measurement,value
"CC(=O)N[C@@H](CSN=O)C(=O)O [NAC-SNO, S-nitroso-N-acetyl cysteine]",Duration of vascular effect,~9 min
